This assay relates to UACC-903. The assay can be described thus: Antitumor activity against human UACC-903 cells xenografted in Nude-Foxn1nu mouse assessed as reduction in tumor size after 24 hrs relative to control. The assay is classed as functional. More on the design: scale not given: the % may be the effect or the level left.

Molecules are shown by their SMILES.

Our source for the Activity values is ChEMBL document CHEMBL4393652, “Development of Isoselenocyanate Compounds' Syntheses and Biological Applications” (2019).

Turning to `[Se]=C=NCCCCc1ccccc1` [PHENYLBUTYL ISOSELENOCYANATE], the Activity amounted to 77%.
